From patent US20240115654A1, “INTRAVENOUS ADMINISTRATION OF ENGINEERED ANTIMICROBIAL AMPHIPHILIC PEPTIDES” (priority 2021, published 2024)
Converted amounts (≈) assume the structure as drawn. Peptide text beside a SMILES is read from it.

Tests used:
[1] = tested on: Staphylococcus aureus isolates (n = 104); test: microbe, parasite or virus in culture
Method: Comparator antibiotics were supplied by Micromyx, and stock solutions were prepared on the first day of testing using solvents recommended by CLSI (1). Stock solutions of all compounds were made at 40× the final testing concentration and stored at −80° C. prior to testing. Information regarding compound source, catalog and lot number, testing concentrations and drug diluent for the comparators and test agent are detailed below in Table 3.
The test organisms evaluated in this study consisted of clinical isolates from the Micromyx Repository and reference isolates from the American Type Culture Collection (ATCC; Manassas, VA). The clinical isolates were obtained from USA hospitals. Upon initial receipt at Micromyx, the organisms were sub-cultured onto an appropriate agar medium. Following incubation, colonies were harvested from these plates and cell suspensions prepared and frozen at −80° C. with a cryoprotectant. Prior to testing, the isolates were streaked from frozen vials onto Trypticase Soy Agar with 5% sheep blood (Becton Dickenson [BD]; Sparks, MD; Lot Nos. 7173618, 7166759, 7208688, 72144895, 7228505 and Remel Lenexa, KS Lot No. 212574). Plates were incubated at 35° C. overnight.
Mueller Hinton II broth (MHB II; BD; Lot Nos. 6258541 and 7143896) was used for MIC testing of aerobic organisms.
MIC values were determined using a broth microdilution procedure described by CLSI (1, 3). Automated liquid handlers (Multidrop 384, Labsystems, Helsinki, Finland; Biomek 2000 and Biomek FX, Beckman Coulter, Fullerton CA) were used to conduct serial dilutions and liquid transfers.
To prepare the drug mother plates, which would provide the serial drug dilutions for the replicate daughter plates, the wells of columns 2-12 of standard 96-well microdilution plates (Costar 3795) were filled with 150 μl of the designated diluent for each row of drug. The test articles and comparator compounds (300 μl at 40× the highest concentration to be tested) were dispensed into the appropriate wells in column 1. The Biomek 2000 was then used to make 2-fold serial dilutions in the mother plates from column 1 through column 11. The wells of Column 12 contained no drug and served as the organism growth control wells for the assay.
The daughter plates were loaded with 185 μL per well of MHB II using the Multidrop 384. The daughter plates were completed on the Biomek FX instrument which transferred 5 μL of drug solution from each well of a mother plate to the corresponding well of each daughter plate in a single step. A standardized inoculum of each test organism was prepared per CLSI methods (1). The inoculum for each organism was dispensed into sterile reservoirs divided by length (Beckman Coulter), and the Biomek 2000 was used to inoculate the plates. Daughter plates were placed on the Biomek 2000 work surface in reverse orientation so that inoculation took place from low to high drug concentration.
Plates were stacked 3-4 high, covered with a lid on the top plate, placed in plastic bags, and incubated at 35° C. for 16 to 20 hrs. Following incubation, the microplates were removed from the incubator and viewed from the bottom using a plate viewer. […] The MIC was read and recorded as the lowest concentration of drug that inhibited visible growth of the organism.
Clinical breakpoints to determine percent resistance within a given organism group were obtained from CLSI (3), with the exception of colistin for K. pneumoniae, Enterobacter spp., and E. coli, which are only available from EUCAST.

[2] = tested on: Pseudomonas aeruginosa ATCC 27853 (non-MDR; QC); conditions: P. aeruginosa ATCC 27853; established CLSI QC range; cited from earlier work
[3] = tested on: Acinetobacter baumannii ATCC BAA-1797 (MDR); type: cell-based; conditions: Acinetobacter baumannii ATCC BAA-1797 (MDR)
Summary of the method: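 Broth microdilution per CLSI in Mueller Hinton II broth with 0.002% polysorbate 80; SEQ ID NO:5 and 8 stocks in DMSO (2.5% final at top dilution), others in PBS; top test concentration 32 mcg/mL. Inoculum ~5×10^5 CFU/mL, 35° C for 16–20 hrs; MIC = lowest concentration preventing visible growth.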

[4] = tested on: P. aeruginosa strains (PAO1 and 2 clinical isolates); test: Determination of bacterial resistance, passage at 0.5×MIC with daily MIC; type: cell-based, Pseudomonas aeruginosa; conditions: three P. aeruginosa strains, exposure at 0.5×MIC, FIG. 20
Source text: Each antibiotic was compared for their propensity to select for bacterial resistance phenotypes in vitro.

[5] = Staphylococcus aureus (n = 104), all methicillin-resistant

Work on `CC(C)[C@H](NC(=O)[C@H](Cc1c[nH]c2ccccc12)NC(=O)[C@H](CCCNC(=N)N)NC(=O)[C@H](CCCNC(=N)N)NC(=O)[C@@H](NC(=O)[C@@H](NC(=O)[C@H](CCCNC(=N)N)NC(=O)[C@@H](NC(=O)[C@@H](NC(=O)[C@H](CCCNC(=N)N)NC(=O)[C@H](CCCNC(=N)N)NC(=O)[C@H](Cc1c[nH]c2ccccc12)NC(=O)[C@@H](NC(=O)[C@H](CCCNC(=N)N)NC(=O)[C@H](CCCNC(=N)N)NC(=O)[C@@H](NC(=O)[C@H](CCCNC(=N)N)NC(=O)[C@H](CCCNC(=N)N)NC(=O)[C@@H](NC(=O)[C@H](Cc1c[nH]c2ccccc12)NC(=O)[C@H](CCCNC(=N)N)NC(=O)[C@@H](N)CCCNC(=N)N)C(C)C)C(C)C)C(C)C)C(C)C)C(C)C)C(C)C)C(C)C)C(=O)N[C@@H](CCCNC(=N)N)C(=O)N[C@@H](CCCNC(=N)N)C(N)=O` [SEQ ID NO: 1] (H-RRWVRRVRRVWRRVVRVVRRWVRR-NH2) yielded an MIC50 ([1]; S. aureus MRSA, n=104) of 4 µg/mL (≈ 1.18 µM), an MIC90 ([1]; S. aureus MRSA, n=104) of 8 µg/mL (≈ 2.35 µM) and an MIC range ([1]; S. aureus MRSA, n=104) of 1 to 16 µg/mL. The MIC50 [1, 5] was 4 µg/mL (≈ 1.18 µM), the MIC90 [1, 5] was 8 µg/mL (≈ 2.35 µM) and the “Mode (MIC)” value [1, 5] was 4 µg/mL.
In the case of Colistin [reference compound], the “MIC QC range (in parentheses under the MIC)” value [2] is listed as “(0.5-4) μg/mL”, the MIC [3] is listed as 0.5 µg/mL and the “time to development of resistance (fold MIC >10)” value [4] is listed as at most 13 days.
